Measurements as given in PubChem BioAssay (NCI).
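Compound exposure: 48 hours, 5 concentrations, 96-well plates. Definition used: TGI = concentration required for complete inhibition of growth.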

What was measured:
Assay in all cases: inhibition of tumour cell growth, NCI panel, 48 h
[1] = test system: MALME-3M melanoma
[2] = test system: COLO 205 colon
[3] = test system: NCI-H23 lung
[4] = test system: LOX IMVI melanoma
[5] = test system: OVCAR-3 ovarian
[6] = test system: SF-268 CNS
[7] = test system: HT29 colon
[8] = test system: SNB-75 CNS
[9] = test system: HOP-62 NSCLC
[10] = test system: MOLT-4 leukemia
[11] = test system: TK-10 renal
[12] = test system: DU-145 prostate
[13] = test system: NCI-H460 lung
[14] = test system: CAKI-1 renal
[15] = test system: UO-31 renal
[16] = test system: SN12C renal
[17] = test system: EKVX NSCLC
[18] = test system: HS 578T breast
[19] = test system: SK-MEL-5 melanoma
[20] = test system: U251 CNS
[21] = test system: KM12 colon
[22] = test system: MDA-MB-435
[23] = test system: OVCAR-4 ovarian
[24] = test system: SK-MEL-2 melanoma
[25] = test system: OVCAR-5 ovarian
[26] = test system: HOP-92 NSCLC
[27] = test system: CCRF-CEM leukemia
[28] = test system: RPMI-8226 leukemia
[29] = test system: IGROV1 ovarian
[30] = test system: 786-0 renal
[31] = test system: PC-3 prostate
[32] = test system: A549 NSCLC
[33] = test system: SK-MEL-28 melanoma
[34] = test system: UACC-257 melanoma
[35] = test system: RXF 393 renal
[36] = test system: A498 renal
[37] = test system: ACHN renal
[38] = test system: MDA-MB-231 breast
[39] = test system: BT-549 breast
[40] = test system: UACC-62 melanoma
[41] = test system: HCC-2998 colon
[42] = test system: SK-OV-3 ovarian
[43] = test system: HL-60(TB) leukemia
[44] = test system: MCF7 breast
[45] = test system: T-47D breast
[46] = test system: HCT-15 colon
[47] = test system: NCI/ADR-RES ovarian
[48] = test system: HCT-116 colon
[49] = test system: SNB-19 CNS
[50] = test system: SF-295 CNS
[51] = test system: OVCAR-8 ovarian
[52] = test system: NCI-H522 lung
[53] = test system: M14 melanoma
[54] = test system: MDA-N
[55] = test system: K-562 leukemia
[56] = test system: SW-620 colon
[57] = test system: SF-539 CNS
[58] = test system: NCI-H226 lung

Measured: TGI

Cc1cc2nc(N3C(=O)/C(=C/c4ccc(Oc5ccccc5)cc4)N=C3c3ccccc3)sc2cc1C
83.4 µM: [22]
86.8 µM: [28]
80.5 µM: [52]
71.6 µM: [24]
63.8 µM: [43]
91.6 µM: [47]
47.6 µM: [2]
> 100 µM: [1] | [3] | [4] | [5] | [6] | [7] | [8] | [9] | [10] | [11] | [12] | [13] | [14] | [15] | [16] | [17] | [18] | [19] | [20] | [21] | [23] | [25] | [26] | [27] | [29] | [30] | [31] | [32] | [33] | [34] | [35] | [36] | [37] | [38] | [39] | [40] | [41] | [42] | [44] | [45] | [46] | [48] | [49] | [50] | [51] | [53] | [54] | [55] | [56]

Cn1c(=O)c2ccccc2c2ccccc21
89.8 µM: [14]
95.7 µM: [19]
63.1 µM: [17]
94.1 µM: [42]
93.8 µM: [36]
> 100 µM: [1] | [2] | [3] | [4] | [5] | [6] | [7] | [8] | [9] | [11] | [12] | [13] | [15] | [16] | [18] | [20] | [21] | [22] | [23] | [24] | [26] | [27] | [28] | [30] | [31] | [32] | [33] | [34] | [35] | [37] | [38] | [57] | [39] | [40] | [41] | [44] | [45] | [46] | [47] | [48] | [49] | [50] | [58] | [51] | [52] | [53] | [54] | [56]
